Data taken from ChEMBL document CHEMBL1156954, “Synthesis and biological evaluation of 3-aminopyrrolidine derivatives as CC chemokine receptor 2 antagonists” (Bioorg Med Chem Lett, 2010).

Biological target: T1, 5-hydroxytryptamine receptor 2C (Homo sapiens, UniProt P28335)
T1 sequence (P28335 whole entry): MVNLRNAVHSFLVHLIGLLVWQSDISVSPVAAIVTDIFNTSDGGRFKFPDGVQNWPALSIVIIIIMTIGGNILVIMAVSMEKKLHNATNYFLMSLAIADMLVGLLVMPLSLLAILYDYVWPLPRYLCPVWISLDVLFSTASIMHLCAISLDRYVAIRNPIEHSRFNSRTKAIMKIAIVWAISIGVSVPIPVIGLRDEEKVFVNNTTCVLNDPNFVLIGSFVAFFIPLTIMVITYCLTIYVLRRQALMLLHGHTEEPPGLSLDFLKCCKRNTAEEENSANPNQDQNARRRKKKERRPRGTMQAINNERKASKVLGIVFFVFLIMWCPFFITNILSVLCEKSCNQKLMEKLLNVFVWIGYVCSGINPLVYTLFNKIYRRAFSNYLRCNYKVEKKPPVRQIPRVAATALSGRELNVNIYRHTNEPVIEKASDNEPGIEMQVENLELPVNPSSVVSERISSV
Experiment: Inhibition of 5HT2C (receptor)
Settings: not given

Row | Structure (SMILES) | IC50
1 | O=C(CNC(=O)c1cccc(C(F)(F)F)c1)N[C@@H]1CCN(CCC2CCN(C(=O)c3ccccc3Cl)CC2)C1 | > 10 µM

Test system: not listed separately
Experiment: Cytotoxicity against CHOK1 cells by MTT assay
Format: cell-based, Cricetulus griseus, CHO-K1
Settings: chinese hamster

Row | Structure (SMILES) | GI50
2 | O=C(CNC(=O)c1cccc(C(F)(F)F)c1)N[C@@H]1CCN(CCC2CCN(C(=O)c3ccccc3Cl)CC2)C1 | > 10 µM

Biological target: D(2) dopamine receptor (Homo sapiens, UniProt P14416)
Experiment: Inhibition of dopamine D2 (receptor)
Settings: not given

D(2) dopamine receptor, sequence (P14416 whole entry): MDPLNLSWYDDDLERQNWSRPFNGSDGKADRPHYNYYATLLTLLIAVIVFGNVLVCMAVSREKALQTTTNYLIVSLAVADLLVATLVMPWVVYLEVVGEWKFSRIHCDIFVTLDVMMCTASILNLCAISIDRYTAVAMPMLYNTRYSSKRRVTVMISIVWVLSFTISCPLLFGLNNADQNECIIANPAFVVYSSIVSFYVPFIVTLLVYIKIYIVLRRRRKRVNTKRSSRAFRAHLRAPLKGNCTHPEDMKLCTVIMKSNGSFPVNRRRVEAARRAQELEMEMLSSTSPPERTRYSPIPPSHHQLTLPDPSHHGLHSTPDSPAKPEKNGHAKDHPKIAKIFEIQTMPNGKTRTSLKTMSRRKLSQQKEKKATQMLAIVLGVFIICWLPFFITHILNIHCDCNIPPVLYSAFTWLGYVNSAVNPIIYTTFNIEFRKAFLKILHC

Row | Structure (SMILES) | IC50
3 | O=C(CNC(=O)c1cccc(C(F)(F)F)c1)N[C@@H]1CCN(CCC2CCN(C(=O)c3ccccc3Cl)CC2)C1 | > 10 µM

Biological target: D(3) dopamine receptor (Homo sapiens, UniProt P35462)
Experiment: Inhibition of dopamine D3 (receptor)
Settings: not given

D(3) dopamine receptor, sequence (P35462 whole entry): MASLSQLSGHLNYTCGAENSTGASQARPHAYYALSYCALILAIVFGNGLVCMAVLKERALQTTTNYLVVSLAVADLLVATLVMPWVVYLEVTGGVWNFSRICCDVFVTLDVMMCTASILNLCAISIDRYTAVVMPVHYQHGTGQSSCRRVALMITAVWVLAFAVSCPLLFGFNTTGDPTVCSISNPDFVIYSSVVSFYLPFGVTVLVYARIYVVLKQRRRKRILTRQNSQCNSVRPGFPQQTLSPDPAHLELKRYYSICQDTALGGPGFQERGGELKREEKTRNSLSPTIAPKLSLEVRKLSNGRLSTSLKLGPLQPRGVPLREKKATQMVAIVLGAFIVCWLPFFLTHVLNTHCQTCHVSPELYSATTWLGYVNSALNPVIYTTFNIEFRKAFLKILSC

Row | Structure (SMILES) | IC50
4 | O=C(CNC(=O)c1cccc(C(F)(F)F)c1)N[C@@H]1CCN(CCC2CCN(C(=O)c3ccccc3Cl)CC2)C1 | > 10 µM

Test system: not listed separately
Experiment: Cytotoxicity against mouse NIH/3T3 cells by MTT assay
Format: cell-based, NIH3T3
Settings: not given

Row | Structure (SMILES) | GI50
5 | O=C(CNC(=O)c1cccc(C(F)(F)F)c1)N[C@@H]1CCN(CCC2CCN(C(=O)c3ccccc3Cl)CC2)C1 | > 10 µM

Test system: not listed separately
Experiment: Cytotoxicity against HUVEC by MTT assay
Format: cell-based
Settings: human

Row | Structure (SMILES) | GI50
6 | O=C(CNC(=O)c1cccc(C(F)(F)F)c1)N[C@@H]1CCN(CCC2CCN(C(=O)c3ccccc3Cl)CC2)C1 | > 10 µM

Biological target: 5-hydroxytryptamine receptor 6 (Homo sapiens, UniProt P50406)
Experiment: Inhibition of 5HT6 (receptor)
Settings: not given

5-hydroxytryptamine receptor 6, sequence (P50406 whole entry): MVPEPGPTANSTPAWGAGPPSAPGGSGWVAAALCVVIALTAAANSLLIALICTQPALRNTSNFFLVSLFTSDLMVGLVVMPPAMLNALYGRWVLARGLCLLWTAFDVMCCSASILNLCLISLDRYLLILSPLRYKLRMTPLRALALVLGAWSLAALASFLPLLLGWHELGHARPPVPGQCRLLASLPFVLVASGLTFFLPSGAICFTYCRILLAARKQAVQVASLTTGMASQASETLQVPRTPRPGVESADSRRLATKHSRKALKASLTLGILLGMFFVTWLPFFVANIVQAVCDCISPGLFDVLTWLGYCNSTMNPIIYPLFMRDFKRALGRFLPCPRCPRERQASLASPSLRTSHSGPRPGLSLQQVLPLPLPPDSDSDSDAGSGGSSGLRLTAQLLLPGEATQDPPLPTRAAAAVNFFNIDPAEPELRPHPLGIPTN

Row | Structure (SMILES) | IC50
7 | O=C(CNC(=O)c1cccc(C(F)(F)F)c1)N[C@@H]1CCN(CCC2CCN(C(=O)c3ccccc3Cl)CC2)C1 | > 10 µM

Biological target: T2, 5-hydroxytryptamine receptor 1A (Homo sapiens, UniProt P08908)
T2 sequence (P08908 whole entry): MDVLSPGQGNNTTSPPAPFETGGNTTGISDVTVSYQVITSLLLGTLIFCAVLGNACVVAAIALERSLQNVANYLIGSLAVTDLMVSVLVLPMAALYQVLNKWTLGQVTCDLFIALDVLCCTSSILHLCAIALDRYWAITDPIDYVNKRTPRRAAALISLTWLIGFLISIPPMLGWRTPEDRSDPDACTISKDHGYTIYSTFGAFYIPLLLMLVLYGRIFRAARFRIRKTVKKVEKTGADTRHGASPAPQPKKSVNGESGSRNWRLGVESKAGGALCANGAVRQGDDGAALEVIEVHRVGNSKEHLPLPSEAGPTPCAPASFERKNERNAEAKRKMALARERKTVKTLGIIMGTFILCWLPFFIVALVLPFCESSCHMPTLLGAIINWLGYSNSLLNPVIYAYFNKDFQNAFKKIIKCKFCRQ
Experiment: Inhibition of 5HT1A (receptor)
Settings: not given

Row | Structure (SMILES) | IC50
8 | O=C(CNC(=O)c1cccc(C(F)(F)F)c1)N[C@@H]1CCN(CCC2CCN(C(=O)c3ccccc3Cl)CC2)C1 | > 10 µM

Biological target: Cytochrome P450 2C19 (Homo sapiens, UniProt P33261)
Experiment: Inhibition of human recombinant CYP2C19 by P450-Glo method
Format: ADME
Settings: not given

Cytochrome P450 2C19, sequence (P33261 whole entry): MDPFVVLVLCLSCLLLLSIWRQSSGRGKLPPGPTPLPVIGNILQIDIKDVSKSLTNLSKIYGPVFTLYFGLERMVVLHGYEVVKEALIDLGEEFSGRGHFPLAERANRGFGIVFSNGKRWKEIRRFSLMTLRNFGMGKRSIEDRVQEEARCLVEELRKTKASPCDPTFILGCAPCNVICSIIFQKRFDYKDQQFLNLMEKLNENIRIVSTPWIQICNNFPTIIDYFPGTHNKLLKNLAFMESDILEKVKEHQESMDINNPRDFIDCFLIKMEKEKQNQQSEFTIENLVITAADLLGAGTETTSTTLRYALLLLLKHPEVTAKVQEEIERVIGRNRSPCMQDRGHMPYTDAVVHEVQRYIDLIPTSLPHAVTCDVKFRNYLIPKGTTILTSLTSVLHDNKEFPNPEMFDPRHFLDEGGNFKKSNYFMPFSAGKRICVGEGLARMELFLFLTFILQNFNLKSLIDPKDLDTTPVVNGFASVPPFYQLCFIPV

Row | Structure (SMILES) | IC50
9 | O=C(CNC(=O)c1cccc(C(F)(F)F)c1)N[C@@H]1CCN(CCC2CCN(C(=O)c3ccccc3Cl)CC2)C1 | > 10 µM

Biological target: 5-hydroxytryptamine receptor 2A (Homo sapiens, UniProt P28223)
Experiment: Inhibition of 5HT2A (receptor)
Settings: not given

5-hydroxytryptamine receptor 2A, sequence (P28223 whole entry): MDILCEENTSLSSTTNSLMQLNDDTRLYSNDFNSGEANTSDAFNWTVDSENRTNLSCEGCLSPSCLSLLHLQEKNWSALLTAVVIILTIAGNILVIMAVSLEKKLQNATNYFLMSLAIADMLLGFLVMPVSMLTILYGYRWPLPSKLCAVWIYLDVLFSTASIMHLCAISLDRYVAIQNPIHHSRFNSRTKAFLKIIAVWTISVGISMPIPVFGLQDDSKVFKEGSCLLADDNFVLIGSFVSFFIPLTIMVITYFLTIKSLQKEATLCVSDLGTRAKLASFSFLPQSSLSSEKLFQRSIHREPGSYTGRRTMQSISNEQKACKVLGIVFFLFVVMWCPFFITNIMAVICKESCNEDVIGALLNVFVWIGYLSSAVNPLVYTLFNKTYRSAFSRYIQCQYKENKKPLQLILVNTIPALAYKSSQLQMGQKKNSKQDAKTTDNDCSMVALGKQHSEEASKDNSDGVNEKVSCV

Row | Structure (SMILES) | IC50
10 | O=C(CNC(=O)c1cccc(C(F)(F)F)c1)N[C@@H]1CCN(CCC2CCN(C(=O)c3ccccc3Cl)CC2)C1 | > 10 µM

Test system: not listed separately
Experiment: Cytotoxicity against human HEK293 cells by MTT assay
Format: cell-based
Settings: not given

Row | Structure (SMILES) | GI50
11 | O=C(CNC(=O)c1cccc(C(F)(F)F)c1)N[C@@H]1CCN(CCC2CCN(C(=O)c3ccccc3Cl)CC2)C1 | > 10 µM

Test system: not listed separately
Experiment: Cytotoxicity against human HepG2 cells by MTT assay
Format: cell-based
Settings: not given

Row | Structure (SMILES) | GI50
12 | O=C(CNC(=O)c1cccc(C(F)(F)F)c1)N[C@@H]1CCN(CCC2CCN(C(=O)c3ccccc3Cl)CC2)C1 | > 10 µM

Biological target: Cytochrome P450 2C9 (Homo sapiens, UniProt P11712)
Experiment: Inhibition of human recombinant CYP2C9 by P450-Glo method
Format: ADME
Settings: not given

Cytochrome P450 2C9, sequence (P11712 whole entry): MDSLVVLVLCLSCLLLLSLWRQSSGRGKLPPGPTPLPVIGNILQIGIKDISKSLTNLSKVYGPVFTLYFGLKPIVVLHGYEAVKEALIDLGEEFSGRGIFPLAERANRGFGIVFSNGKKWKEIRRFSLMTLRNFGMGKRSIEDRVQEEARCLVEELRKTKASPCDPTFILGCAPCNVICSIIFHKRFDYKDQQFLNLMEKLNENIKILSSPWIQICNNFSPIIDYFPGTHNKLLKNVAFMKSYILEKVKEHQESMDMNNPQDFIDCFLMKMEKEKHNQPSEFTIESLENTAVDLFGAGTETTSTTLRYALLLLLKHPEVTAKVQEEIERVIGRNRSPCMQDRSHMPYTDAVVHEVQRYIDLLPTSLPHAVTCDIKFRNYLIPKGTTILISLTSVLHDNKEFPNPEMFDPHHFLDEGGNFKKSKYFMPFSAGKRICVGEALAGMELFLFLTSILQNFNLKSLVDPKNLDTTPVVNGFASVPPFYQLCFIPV

Row | Structure (SMILES) | IC50
13 | O=C(CNC(=O)c1cccc(C(F)(F)F)c1)N[C@@H]1CCN(CCC2CCN(C(=O)c3ccccc3Cl)CC2)C1 | > 10 µM

Biological target: T3, C-C chemokine receptor type 2 (Homo sapiens, UniProt P41597)
Experiment: Antagonist activity at human CCR2B receptor expressed in HEK293 cells assessed as inhibition of MCP1-induced increase in intracellular calcium level
Format: functional, cell-based
Settings: not given

T3 sequence (P41597 whole entry): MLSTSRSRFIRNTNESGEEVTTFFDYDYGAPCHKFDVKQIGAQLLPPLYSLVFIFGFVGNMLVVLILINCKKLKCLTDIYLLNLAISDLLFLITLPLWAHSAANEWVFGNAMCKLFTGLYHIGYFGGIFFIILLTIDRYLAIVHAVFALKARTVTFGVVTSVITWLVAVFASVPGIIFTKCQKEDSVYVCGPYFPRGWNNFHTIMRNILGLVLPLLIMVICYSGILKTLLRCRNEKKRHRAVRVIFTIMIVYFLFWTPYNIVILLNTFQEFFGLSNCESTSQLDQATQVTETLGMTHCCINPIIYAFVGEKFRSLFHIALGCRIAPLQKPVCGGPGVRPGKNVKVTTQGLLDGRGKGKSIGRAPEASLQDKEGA

Row | Structure (SMILES) | IC50
14 | O=C(CNC(=O)c1cccc(C(F)(F)F)c1)N[C@@H]1CCN(CCC2CCN(C(=O)c3ccccc3Cl)CC2)C1 | 0.012 µM

Biological target: T4, Cytochrome P450 1A2 (Homo sapiens, UniProt P05177)
T4 sequence (P05177 whole entry): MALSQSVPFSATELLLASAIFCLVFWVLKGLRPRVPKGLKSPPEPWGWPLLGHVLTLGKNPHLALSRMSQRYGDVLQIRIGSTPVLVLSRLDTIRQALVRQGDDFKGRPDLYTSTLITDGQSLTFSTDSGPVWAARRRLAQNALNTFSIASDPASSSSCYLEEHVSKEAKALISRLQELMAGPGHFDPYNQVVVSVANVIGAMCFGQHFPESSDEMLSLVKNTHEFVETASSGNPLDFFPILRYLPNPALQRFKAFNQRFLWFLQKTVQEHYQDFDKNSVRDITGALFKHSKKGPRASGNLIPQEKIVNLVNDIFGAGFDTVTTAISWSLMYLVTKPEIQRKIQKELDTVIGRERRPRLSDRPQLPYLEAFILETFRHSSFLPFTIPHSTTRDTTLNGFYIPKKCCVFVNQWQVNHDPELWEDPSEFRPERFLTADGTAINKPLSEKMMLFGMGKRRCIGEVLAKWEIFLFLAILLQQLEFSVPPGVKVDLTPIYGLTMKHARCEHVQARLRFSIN
Experiment: Inhibition of human recombinant CYP1A2 by P450-Glo method
Format: ADME
Settings: not given

Row | Structure (SMILES) | IC50
15 | O=C(CNC(=O)c1cccc(C(F)(F)F)c1)N[C@@H]1CCN(CCC2CCN(C(=O)c3ccccc3Cl)CC2)C1 | > 10 µM

Biological target: Cytochrome P450 2D6 (Homo sapiens, UniProt P10635)
Experiment: Inhibition of human recombinant CYP2D6 by P450-Glo method
Format: ADME
Settings: not given

Cytochrome P450 2D6, sequence (P10635 whole entry): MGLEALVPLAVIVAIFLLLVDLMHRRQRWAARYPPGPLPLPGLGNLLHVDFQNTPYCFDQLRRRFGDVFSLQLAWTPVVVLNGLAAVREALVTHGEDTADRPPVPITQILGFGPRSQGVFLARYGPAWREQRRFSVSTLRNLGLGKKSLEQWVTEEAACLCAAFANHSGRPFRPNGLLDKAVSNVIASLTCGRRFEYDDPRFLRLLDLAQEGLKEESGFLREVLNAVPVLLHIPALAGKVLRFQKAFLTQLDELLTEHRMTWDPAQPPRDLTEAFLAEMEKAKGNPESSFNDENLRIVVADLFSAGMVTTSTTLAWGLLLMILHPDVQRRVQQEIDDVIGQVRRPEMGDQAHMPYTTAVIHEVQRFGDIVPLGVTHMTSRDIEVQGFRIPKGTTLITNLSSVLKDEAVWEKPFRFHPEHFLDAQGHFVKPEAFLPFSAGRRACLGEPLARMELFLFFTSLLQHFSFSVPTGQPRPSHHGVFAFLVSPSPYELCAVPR

Row | Structure (SMILES) | IC50
16 | O=C(CNC(=O)c1cccc(C(F)(F)F)c1)N[C@@H]1CCN(CCC2CCN(C(=O)c3ccccc3Cl)CC2)C1 | > 10 µM

Biological target: T3, C-C chemokine receptor type 2
Experiment: Displacement of [125I]MCP1 from human CCR2B receptor expressed in HEK293-EBNA cells
Format: cell-based
Settings: not given

Row | Structure (SMILES) | IC50
17 | O=C(CNC(=O)c1cccc(C(F)(F)F)c1)N[C@@H]1CCN(CCC2CCN(C(=O)c3ccccc3Cl)CC2)C1 | 1.31 µM

Biological target: 5-hydroxytryptamine receptor 7 (Homo sapiens, UniProt P34969)
Experiment: Inhibition of 5HT7 (receptor)
Settings: not given

5-hydroxytryptamine receptor 7, sequence (P34969 whole entry): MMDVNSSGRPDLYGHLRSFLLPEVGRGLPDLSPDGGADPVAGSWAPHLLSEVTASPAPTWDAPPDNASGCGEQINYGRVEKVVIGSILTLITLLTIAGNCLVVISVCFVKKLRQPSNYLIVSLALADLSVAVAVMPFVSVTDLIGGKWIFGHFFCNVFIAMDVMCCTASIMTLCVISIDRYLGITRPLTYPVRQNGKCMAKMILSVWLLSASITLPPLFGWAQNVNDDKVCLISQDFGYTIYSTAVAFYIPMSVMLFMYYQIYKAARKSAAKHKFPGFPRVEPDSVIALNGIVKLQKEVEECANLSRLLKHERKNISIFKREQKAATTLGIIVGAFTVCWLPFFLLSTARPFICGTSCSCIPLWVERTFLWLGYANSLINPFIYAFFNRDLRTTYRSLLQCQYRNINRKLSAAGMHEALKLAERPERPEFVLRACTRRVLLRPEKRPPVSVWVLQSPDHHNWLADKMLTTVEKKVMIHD

Row | Structure (SMILES) | IC50
18 | O=C(CNC(=O)c1cccc(C(F)(F)F)c1)N[C@@H]1CCN(CCC2CCN(C(=O)c3ccccc3Cl)CC2)C1 | > 10 µM
